Source: article PMC9297976 (Journal of Applied Toxicology, 2021)

Experiments:
medaka ARβ (mArβ) [1] = biological target: T1, medaka ARβ (mArβ) (Oryzias latipes, UniProt D1MV73); test: Medaka ARβ reporter gene assay, agonist assay; assay type: cell-based, Japanese medaka (Oryzias latipes); conditions: MAC = 1.0 × 10^−5 M
T1 sequence (D1MV73 1-744): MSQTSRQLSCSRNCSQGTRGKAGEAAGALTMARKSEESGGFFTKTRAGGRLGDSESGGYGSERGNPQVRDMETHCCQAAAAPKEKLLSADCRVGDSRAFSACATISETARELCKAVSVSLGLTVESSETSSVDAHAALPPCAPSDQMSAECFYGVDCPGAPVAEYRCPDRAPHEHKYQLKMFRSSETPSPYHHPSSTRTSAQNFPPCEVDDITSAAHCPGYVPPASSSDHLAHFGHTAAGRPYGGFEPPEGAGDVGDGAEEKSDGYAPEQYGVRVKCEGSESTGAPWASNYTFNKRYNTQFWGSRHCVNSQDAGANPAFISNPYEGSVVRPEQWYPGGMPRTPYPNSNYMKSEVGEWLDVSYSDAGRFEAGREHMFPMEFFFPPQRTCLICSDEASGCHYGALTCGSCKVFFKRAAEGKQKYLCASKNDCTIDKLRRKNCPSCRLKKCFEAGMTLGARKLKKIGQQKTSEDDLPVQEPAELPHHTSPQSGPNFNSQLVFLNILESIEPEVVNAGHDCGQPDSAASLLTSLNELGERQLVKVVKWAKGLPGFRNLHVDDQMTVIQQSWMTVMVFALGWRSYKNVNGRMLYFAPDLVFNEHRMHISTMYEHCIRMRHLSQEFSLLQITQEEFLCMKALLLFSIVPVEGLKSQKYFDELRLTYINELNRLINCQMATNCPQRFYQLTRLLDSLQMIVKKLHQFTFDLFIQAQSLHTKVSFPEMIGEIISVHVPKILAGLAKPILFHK

[2] = test system: Japanese medaka (Oryzias latipes); test: Fish Short‐Term Reproduction Assay; assay type: in vivo; conditions: for Fertility rate / Hepatic VTG, female / Hepatic VTG, male / Mortality / Mortality, number of dead fish / Number of fertilized eggs (per female per day) / Number of total eggs (per female per day) / SSC female (joint plates with papillary processes) / SSC male (joint plates with papillary processes): 21 d; for LOECREPRO: LOEC on reproduction (fecundity and/or fertility); for minimal effective concentration: Oryzias latipes, 504 h, read-out: LOECmVTG; for LOECTOX: lowest observed effect concentration on mortality; for GSI Female / GSI Male / HSI Female / HSI Male / Length Female / Length Male / Weight Female / Weight Male: completion of exposure
medaka Esr1 (mEsr1) [3] = biological target: T2, medaka Esr1 (mEsr1) (Oryzias latipes, UniProt P50241); test: cell-based; set-up: species or system Japanese medaka (Oryzias latipes); conditions: for In vitro positive: Esr: mode of action in which EC50 or PC10 was obtained in RGA
T2 sequence (P50241 1-620): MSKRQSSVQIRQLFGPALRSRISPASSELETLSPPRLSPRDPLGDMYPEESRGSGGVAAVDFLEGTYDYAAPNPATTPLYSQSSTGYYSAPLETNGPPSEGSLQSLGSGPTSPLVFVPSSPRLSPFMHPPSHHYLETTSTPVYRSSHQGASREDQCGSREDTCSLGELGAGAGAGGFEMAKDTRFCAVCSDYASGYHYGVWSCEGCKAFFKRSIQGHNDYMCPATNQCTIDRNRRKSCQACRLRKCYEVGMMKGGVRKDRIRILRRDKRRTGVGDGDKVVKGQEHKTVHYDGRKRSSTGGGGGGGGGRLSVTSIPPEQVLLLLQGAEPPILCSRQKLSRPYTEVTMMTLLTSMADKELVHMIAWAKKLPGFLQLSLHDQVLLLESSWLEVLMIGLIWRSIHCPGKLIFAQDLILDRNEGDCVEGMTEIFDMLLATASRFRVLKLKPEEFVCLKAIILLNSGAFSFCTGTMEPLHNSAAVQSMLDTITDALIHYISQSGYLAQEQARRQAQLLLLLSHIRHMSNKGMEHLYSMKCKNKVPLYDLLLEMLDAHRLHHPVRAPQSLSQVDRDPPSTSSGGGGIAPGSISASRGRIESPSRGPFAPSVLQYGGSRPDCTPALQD

medaka Esr1 (mEsr1) [4] = biological target: T2, medaka Esr1 (mEsr1); test: Medaka Esr1 reporter gene assay, antagonist assay; assay type: cell-based, Japanese medaka (Oryzias latipes); conditions: MAC = 1.0 × 10^−5 M
medaka ARβ (mArβ) [5] = biological target: T1, medaka ARβ (mArβ); test: Medaka ARβ reporter gene assay, antagonist assay; assay type: cell-based, Japanese medaka (Oryzias latipes); conditions: 11‐KT spiked at 50 nM (D); MAC = 1.0 × 10^−5 M
[6] = measured concentration 184 μg/L
[7] = measured concentration 836 μg/L
[8] = measured concentration 0.0619 μg/L
[9] = measured concentration 0.294 μg/L
[10] = measured concentration 1.30 μg/L

CC(C)COC(=O)c1ccccc1C(=O)OCC(C)C [DIBP, Diisobutyl phthalate]
Agonistic activity (medaka ARβ (mArβ) [1]): NE (MAC = 1.0 × 10^−5 M)
Fertility rate ([2]; 35 μg/L measured): 97 ± 4.8%
Hepatic VTG, female ([2]; 35 μg/L measured): 596 ± 144 ng/mg‐liver
Hepatic VTG, male ([2]; 35 μg/L measured): 0.3 ± 0.4 ng/mg‐liver
Mortality ([2]; 35 μg/L measured): 0.0%
Mortality, number of dead fish ([2]; 35 μg/L measured): 0
Number of fertilized eggs (per female per day) ([2]; 35 μg/L measured): 23 ± 6.6
Number of total eggs (per female per day) ([2]; 35 μg/L measured): 24 ± 7.0
SSC female (joint plates with papillary processes) ([2]; 35 μg/L measured): 0 ± 0
SSC male (joint plates with papillary processes) ([2]; 35 μg/L measured): 96 ± 11
Fertility rate ([2]; 184 μg/L measured): 97 ± 3.9%
Hepatic VTG, male ([2]; 184 μg/L measured): 0.2 ± 0.1 ng/mg‐liver
Mortality ([2]; 184 μg/L measured): 0.0%
Mortality, number of dead fish ([2]; 184 μg/L measured): 0
Number of fertilized eggs (per female per day) ([2]; 184 μg/L measured): 23 ± 6.9
Number of total eggs (per female per day) ([2]; 184 μg/L measured): 24 ± 7.2
SSC female (joint plates with papillary processes) ([2]; 184 μg/L measured): 0 ± 0
SSC male (joint plates with papillary processes) ([2]; 184 μg/L measured): 96 ± 10
Hepatic VTG, female ([2]; 184 μg/L measured, sig. ↓ vs control): 404 ± 85 ng/mg‐liver
Fertility rate ([2]; 836 μg/L measured): 96 ± 5.4%
Hepatic VTG, male ([2]; 836 μg/L measured): 2.2 ± 3.2 ng/mg‐liver
Mortality ([2]; 836 μg/L measured): 0.0%
Mortality, number of dead fish ([2]; 836 μg/L measured): 0
Number of fertilized eggs (per female per day) ([2]; 836 μg/L measured): 24 ± 5.9
Number of total eggs (per female per day) ([2]; 836 μg/L measured): 25 ± 5.8
SSC female (joint plates with papillary processes) ([2]; 836 μg/L measured): 0 ± 0
SSC male (joint plates with papillary processes) ([2]; 836 μg/L measured): 97 ± 18
Hepatic VTG, female ([2]; 836 μg/L measured, sig. ↓ vs control): 421 ± 73 ng/mg‐liver
LOECREPRO [2]: ND (>836) μg/L
minimal effective concentration [2]: > 0.836 µg/mL
LOECTOX [2]: ND (>836) μg/L
GSI Female ([2]; measured concentration 35 μg/L): 13.3 ± 2.3%
GSI Male ([2]; measured concentration 35 μg/L): 1.2 ± 0.2%
HSI Female ([2]; measured concentration 35 μg/L): 6.3 ± 1.60%
HSI Male ([2]; measured concentration 35 μg/L): 2.7 ± 0.40%
Length Female ([2]; measured concentration 35 μg/L): 33.6 ± 1.5 mm
Length Male ([2]; measured concentration 35 μg/L): 31.9 ± 1.2 mm
Weight Female ([2]; measured concentration 35 μg/L): 446 ± 48 mg
Weight Male ([2]; measured concentration 35 μg/L): 335 ± 39 mg
GSI Female [2, 6]: 13.6 ± 1.9%
GSI Male [2, 6]: 1.0 ± 0.3%
HSI Female [2, 6]: 6.3 ± 0.90%
HSI Male [2, 6]: 3.1 ± 0.40%
Length Female [2, 6]: 32.6 ± 1.5 mm
Length Male [2, 6]: 31.8 ± 1.4 mm
Weight Female [2, 6]: 405 ± 52 mg
Weight Male [2, 6]: 329 ± 55 mg
GSI Female [2, 7]: 12.0 ± 2.0%
GSI Male [2, 7]: 1.2 ± 0.4%
HSI Female [2, 7]: 5.9 ± 1.30%
HSI Male [2, 7]: 3.4 ± 0.40%
Length Female [2, 7]: 32.6 ± 1.4 mm
Length Male [2, 7]: 32.4 ± 1.7 mm
Weight Female [2, 7]: 413 ± 61 mg
Weight Male [2, 7]: 348 ± 62 mg
Agonistic activity PC10 (medaka Esr1 (mEsr1) [3]): PC10 = 3.0 × 10^−6 M
In vitro positive: Esr (medaka Esr1 (mEsr1) [3]): Esr
Antagonistic activity (medaka Esr1 (mEsr1) [4]; E2 spiked at 1.0 nM (B)): NE (MAC = 1.0 × 10^−5 M)^(B)
Antagonistic activity (medaka ARβ (mArβ) [5]): NE (MAC = 1.0 × 10^−5 M)^(D)

CC(C)C(C(=O)OC(C#N)c1cccc(Oc2ccccc2)c1)c1ccc(Cl)cc1 (stereo not shown) [FV, Fenvalerate]
Agonistic activity (medaka ARβ (mArβ) [1]): NE (MAC = 1.0 × 10^−5 M)
Fertility rate ([2]; 0.0619 μg/L measured): 92 ± 3.2%
Hepatic VTG, female ([2]; 0.0619 μg/L measured): 390 ± 68 ng/mg‐liver
Hepatic VTG, male ([2]; 0.0619 μg/L measured): 0.5 ± 0.0 ng/mg‐liver
Mortality ([2]; 0.0619 μg/L measured): 0.0%
Mortality, number of dead fish ([2]; 0.0619 μg/L measured): 0
Number of fertilized eggs (per female per day) ([2]; 0.0619 μg/L measured): 18 ± 2.7
Number of total eggs (per female per day) ([2]; 0.0619 μg/L measured): 19 ± 3.6
SSC female (joint plates with papillary processes) ([2]; 0.0619 μg/L measured): 0 ± 0
SSC male (joint plates with papillary processes) ([2]; 0.0619 μg/L measured): 80 ± 5.6
Fertility rate ([2]; 0.294 μg/L measured): 93 ± 4.3%
Hepatic VTG, female ([2]; 0.294 μg/L measured): 370 ± 212 ng/mg‐liver
Hepatic VTG, male ([2]; 0.294 μg/L measured): 0.5 ± 0.0 ng/mg‐liver
Mortality ([2]; 0.294 μg/L measured): 0.0%
Mortality, number of dead fish ([2]; 0.294 μg/L measured): 0
Number of fertilized eggs (per female per day) ([2]; 0.294 μg/L measured): 20 ± 3.5
Number of total eggs (per female per day) ([2]; 0.294 μg/L measured): 21 ± 3.1
SSC female (joint plates with papillary processes) ([2]; 0.294 μg/L measured): 0 ± 0
SSC male (joint plates with papillary processes) ([2]; 0.294 μg/L measured): 88 ± 7.2
Fertility rate ([2]; 1.30 μg/L measured): 94 ± 2.8%
Hepatic VTG, female ([2]; 1.30 μg/L measured): 237 ± 152 ng/mg‐liver
Hepatic VTG, male ([2]; 1.30 μg/L measured): 0.9 ± 0.4 ng/mg‐liver
Mortality ([2]; 1.30 μg/L measured): 0.0%
Mortality, number of dead fish ([2]; 1.30 μg/L measured): 0
Number of fertilized eggs (per female per day) ([2]; 1.30 μg/L measured): 23 ± 1.7
Number of total eggs (per female per day) ([2]; 1.30 μg/L measured): 24 ± 1.8
SSC female (joint plates with papillary processes) ([2]; 1.30 μg/L measured): 0 ± 0
SSC male (joint plates with papillary processes) ([2]; 1.30 μg/L measured): 83 ± 4.8
LOECREPRO [2]: ND (>1.30) μg/L
minimal effective concentration [2]: > 0.0013 µg/mL
LOECTOX [2]: ND (>1.3) μg/L
GSI Female [2, 8]: 9.9 ± 0.7%
GSI Male [2, 8]: 0.75 ± 0.07%
HSI Female [2, 8]: 4.3 ± 0.70%
HSI Male [2, 8]: 2.7 ± 0.30%
Length Female [2, 8]: 33.5 ± 1.1 mm
Length Male [2, 8]: 33.8 ± 1.4 mm
Weight Female [2, 8]: 454 ± 36 mg
Weight Male [2, 8]: 418 ± 51 mg
GSI Female [2, 9]: 9.7 ± 0.5%
GSI Male [2, 9]: 0.67 ± 0.11%
HSI Female [2, 9]: 4.7 ± 0.40%
HSI Male [2, 9]: 2.3 ± 0.50%
Length Female [2, 9]: 34.4 ± 0.9 mm
Length Male [2, 9]: 34.0 ± 0.2 mm
Weight Female [2, 9]: 484 ± 33 mg
Weight Male [2, 9]: 422 ± 22 mg
GSI Female [2, 10]: 10.0 ± 0.1%
GSI Male [2, 10]: 0.72 ± 0.10%
HSI Female [2, 10]: 4.4 ± 0.80%
HSI Male [2, 10]: 2.5 ± 0.20%
Length Female [2, 10]: 34.1 ± 0.5 mm
Length Male [2, 10]: 33.9 ± 1.9 mm
Weight Female [2, 10]: 491 ± 33 mg
Weight Male [2, 10]: 416 ± 56 mg
EC50 (medaka Esr1 (mEsr1) [3]): 2400 nM
In vitro positive: Esr (medaka Esr1 (mEsr1) [3]): Esr
Antagonistic activity (medaka Esr1 (mEsr1) [4]; E2 spiked at 0.2 nM (A)): NE (MAC = 1.0 × 10^−5 M) ^(A)
Antagonistic activity (medaka ARβ (mArβ) [5]): NE (MAC = 1.0 × 10^−5 M)^(D)
